US20190175690A1, “COMPOSITIONS AND METHODS FOR CARDIAC REPAIR” (CHILDREN'S MEDICAL CENTER CORPORATION, priority 2016, published 2019)
Values belong to the molecule of their own block, whether it stands above or below them.

Key:
[1] = molecular target: TEAD1-Dendra2 fusion protein (mouse) (UniProt P30051)
[2] = molecular target: Dendra2
[3] = molecular target: TEAD1-Dendra2 fusion protein (mouse) (UniProt P30051); remark: listed apart in the source
[4] = molecular target: His-TEAD1[211-427] (recombinant murine TEAD1 residues 211-427 with polyhistidine tag, from E. coli) (mouse) (UniProt P30051); assay: photonic crystal nanobeam sensor, His-TEAD1[211-427] immobilized, curve fitted to the Langmuir equation
[5] = tested on: VGLL4-mediated TEAD1 degradation; assay: VGLL4-mediated TEAD1 degradation in co-transfected 293T cells (immunoblot); type: cell-based; details: 293T cells co-transfected with TEAD1 and VGLL4, inhibitors for 6 hours
Protocol: HA-VGLL4 was cloned downstream of TetO promoter. pEF1α::rtTA was used to express rtTA. The expression of HA-VGLL4 will be activated in the presence of both Dox and rtTA. […] 293T cells were co-transfected with pEF1α::rtTA and pTetO::HA-Vgll4. Twenty-four (24) hours after transfection, cells were treated with […] Dox for different hours. Immunoblotting was carried out to detect the expression of HA-VGLL4. […] Mouse Tead1 specific primers were used to measure relative Tead1-Dendra2 mRNA level by qRT-PCR. FIG. 8D depicts an immunoblot showing TEAD1 degradation is dependent on cysteine proteases and is independent of the proteasome. 293T cells were first co-transfected with TEAD1^fb and Vgll4-GFP plasmids. 1 day after transfection, cells were treated with indicated inhibitors for 6 hours. Dimethyl sulfoxide (DMSO, 0.1%) was used as control vehicle. β-tubulin was used as loading control.
Major pathways for protein degradation can include the proteasome and cysteine, serine, and threonine peptidases. To determine if these candidate pathways are involved in VGLL4-mediated TEAD1 degradation, the effect of MG132 (a universal proteasome inhibitor (Lee et al., 1998)), leupeptin (an inhibitor of serine and threonine peptidases (Umezawa, 1976)) and E64 (an inhibitor specific to cysteine proteases (Barrett et al., 1982)) on VGLL4-mediated TEAD1 degradation was studied.

[6] = clinical testing, Chen et al., 2013; cited from earlier work
[7] = tested on: high salt diet induced heart failure; details: Cheng et al., 2008; cited from earlier work
[8] = tested on: TEAD1-Dendra2; assay: pulse-labeled TEAD1-Dendra2 live cell imaging in 293T cells; type: cell-based; details: photoconverted TEAD1-Dendra2, Dox-induced VGLL4
Protocol: (§1) FIG. 7A is an immunoblot showing VGLL4 overexpression decreased TEAD1 protein level. Different doses of TEAD1 plasmids (indicated in μg) were co-transfected with 1.6 μg VGLL4-GFP plasmid. Cells were collected for western blot 24 hours after transfection. FIGS. 7B-7C show the generation and validation of TEAD1-Dendra2 construct. Tead1-Dendra2 plasmid was transfected into 293T cells. Western blot confirmed expression of TEAD1-Dendra2 fusion protein (FIG. 7B). TEAD1-Dendra2 merge fusion protein was green before illumination with 405 nm light. […] Cells were analyzed at the indicated time points. […] FIG. 7E is a graph showing the quantification of TEAD1-Dendra2 protein levels in FIG. 7D. *P<0.05. n=3. […] Relative red fluorescence intensity (RFI) was monitored for 20 minutes by taking one image per minute. n=6. […] Twenty-four (24) hours after transfection, cells were treated with Dox for the indicated number of hours, when cell extracts were analyzed for Firefly and Renilla luciferase activity. […]
DOX-induced VGLL4 expression was combined with live cell imaging of TEAD1-Dendra2 to specifically probe the effect of VGLL4 on TEAD1 stability. […] In the absence of VGLL4, TEAD1-Dendra2 protein fluorescence intensity dropped by 10% during the first 10 minutes, and then became relatively stable. […]

[9] = tested on: myocardial infarction; details: Dong et al., 2007; cited from earlier work
[10] = tested on: TEAD1-YAP transcriptional activity; assay: 8xGTIIC-Luci luciferase reporter assay in 293T cells with DOX-induced VGLL4; type: cell-based
Protocol: as §1
The data indicates an additional mechanism, in which VGLL4 binding to TEAD1 promotes its degradation and thereby reduces the amount available to interact with YAP. To test additional mechanisms, the TEAD1 luciferase reporter 8xGTIIC-Luci (Dupont et al., 2011) was used as a read out of TEAD1-YAP transcriptional activity. […]

steady-state TEAD1-Dendra2 protein level after Dox (immunoblot) [1]: 50%
red fluorescence intensity of photoconverted Dendra2 (time lapse imaging) [2]: 5%
red fluorescence intensity of photoconverted TEAD1-Dendra2 (time lapse imaging) [3]: 18%
Molecule: HA-VGLL4 (doxycycline-inducible, pTetO::HA-VGLL4)

Kd [4]: 3.1 nM
Molecule: synthetic non-acetylated VGLL4 TDU domain peptide with V5 epitope (from UniProt Q14135-4)

Molecule: CC(=O)N[C@@H](CC(C)C)C(=O)N[C@@H](CC(C)C)C(=O)N[C@H](C=O)CCCNC(=N)N [leupeptin]
VGLL4-mediated reduction of TEAD1 steady-state levels [5]: reduced VGLL4-mediated reduction of TEAD1 steady-state levels

Molecule: CCOC(=O)[C@H]1O[C@@H]1C(=O)N[C@@H](CC(C)C)C(=O)NCCC(C)C [E64d]
safety profile [6]: good safety profile

Molecule: CC(C)C[C@H](NC(=O)[C@H]1O[C@@H]1C(=O)O)C(=O)NCCCCN=C(N)N (relative stereo) [E64, L-trans-Epoxysuccinyl-leucylamido(4-guanidino)butane]
high salt diet induced heart failure [7]: attenuated high salt diet induced heart failure
VGLL4-mediated reduction of TEAD1 steady-state levels [5]: reduced VGLL4-mediated reduction of TEAD1 steady-state levels
destabilizing effect of VGLL4 on TEAD1-Dendra2 [8]: reduced the destabilizing effect of VGLL4 on TEAD1-Dendra2
beneficial effect in myocardial infarction model [9]: did not show a beneficial effect
reduction of TEAD1 transcriptional activity caused by VGLL4 induction [10]: did not completely abrogate
luciferase reporter activity ([10]; 8 hours after DOX treatment, P<0.05): significantly increased reporter activity
